# Measured values as given in patent US20250237650A1 (priority 2021, published 2025).
# Tests used:
# SARS-CoV-2 spike [1] = assay type: binding; details: for Kd: pH 7.4
# [2] = molecular target: Env (monomeric gp140; Clade CRF07_BC); test: BLI of HS/HEP to monomeric Env; parameters: species or system HIV-1; details: steady-state analysis of BLI data; read-out: Estimated binding affinity (KD)
# [3] = tested on: variants of Env (trimeric gp140; Clade C, B, A); test: BLI of HS to variants of trimeric Env; assay type: binding, HIV-1
# [4] = molecular target: trimeric Env (Group M; Clade C); test: BLI of HS to trimeric Env; parameters: species or system HIV-1; details: read-out: estimated binding affinity
# SARS-CoV-2 spike [5] = tested on: SARS-CoV-2 spike
Substance,Kd (SARS-CoV-2 spike [1]) [nM],Kd [2] [nM],LFSA signal intensity of capture probes (SARS-CoV-2 spike [5]),also measured
chondroitin sulfate [CS25],17.9,,,
heparan sulfate [HS],,142,,Binding affinity of HS to all the subtypes [3]: in the nanomolar range; Kd [4]: 28 nM
"heparin [HEP27, reference compound]",,,lower signal intensity,
"heparin [HEP15, reference compound]",215,,,
heparan sulfate [HS15],,,highest signal intensity,
heparin [reference compound],,209,,HEP binding affinity to spike as ionic strength increased (SARS-CoV-2 spike [1]): dramatically decreased
